Where “and” joins values, the source holds several entries; their conditions need not be identical. Identical values can stand only once.

Our source for the inhibition values is ChEMBL document CHEMBL1128812, “Synthesis and porcine pancreatic elastase inhibitory evaluation of 6-(sulfonyl)oxy-and 6-chloropenicillanate sulfone esters and 3-(acyloxy)methyl-6-chloropenam sulfones” (Bioorg Med Chem Lett, 1995).

The target of this experiment is T1, Chymotrypsin-like elastase family member 2A (Sus scrofa) (UniProt P08419).
T1 sequence (whole entry): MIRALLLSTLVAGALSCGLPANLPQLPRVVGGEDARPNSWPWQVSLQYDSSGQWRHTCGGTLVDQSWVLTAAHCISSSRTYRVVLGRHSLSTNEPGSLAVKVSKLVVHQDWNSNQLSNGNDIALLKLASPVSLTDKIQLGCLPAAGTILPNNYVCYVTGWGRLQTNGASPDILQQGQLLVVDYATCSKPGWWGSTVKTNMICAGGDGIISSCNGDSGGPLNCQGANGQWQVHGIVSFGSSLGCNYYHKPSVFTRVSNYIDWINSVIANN
Kind of experiment: Compound was tested in vitro for its ability to inhibit Pancreatic elastase catalyzed hydrolysis of substrate with 10 min pre-incubation.

With `COC(=O)[C@@H]1N2C(=O)[C@@H](Cl)[C@H]2S(=O)(=O)C1(C)C`, the inhibition is 44% and 40%.

In general, inhibition refers to the drop in the measured response relative to a control, in per cent. Higher therefore signals a strong effect.
